In ChEMBL document CHEMBL3997847, “Development of a novel near-infrared fluorescent theranostic combretastain A-4 analogue, YK-5-252, to target triple negative breast cancer” (Bioorg Med Chem, 2017):
Activity calls are given as the source filed them. The calls are words filed in the database; no cut-off is given here.

Assays:
[1] = Retention time of the compound at 200 uM in presence of 50 mM GSH by HPLC analysis
[2] = system: MDA-MB-231; test: Growth inhibition of human MDA-MB-231 cells after 72 hrs by MTT assay; type: cell-based; details: MDA-MB-231, 72 h
[3] = species: Homo sapiens; test: Inhibition of beta-tubulin polymerization in human MDA-MB-231 cells at 50 nM after 1 hr by NucBlue staining based immunofluorescence microscopic assay; type: cell-based

Compound | Retention time [1] [min] | GI50 [2] [nM] | inhibition [3]
N#CC(C#N)=C1C=C(/C=C/c2ccc(N)cc2)Oc2ccccc21 | 8.6 | – | –
COc1ccc(/C=C\c2cc(OC)c(OC)c(OC)c2)cc1O [COMBRETASTATIN A4] | 6.8 | 2.81 | Active
